The results in this text go back to ChEMBL document CHEMBL1201862, “PubChem BioAssay data set” (2004).

Holding throughout (experiment): inhibition of tumour cell growth, NCI panel, 48 h
Experiment [1] has as its system CAKI-1.
The subject of experiment [2] is UO-31.
The subject of experiment [3] is T47D.
In experiment [4] the test system is SK-MEL-5.
For experiment [5], the system named is SN12C.
The subject of experiment [6] is COLO 205.
The subject of experiment [7] is MDA-MB-435.
In experiment [8] the test system is U-251.
In experiment [9] the test system is KM12.
The subject of experiment [10] is OVCAR-8.
Experiment [11] deals with OVCAR-4.
The subject of experiment [12] is A498.
Experiment [13] relates to EKVX.
Experiment [14] deals with NCI-H226.
In experiment [15] the test system is SNB-19.
Experiment [16] relates to SK-MEL-28.
Experiment [17] concerns HCT-15.
In experiment [18] the test system is SF-268.
The test system of experiment [19] is TK-10.
The subject of experiment [20] is HOP-92.

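Where inhibition never reached the appropriate level, the endpoint shown equals the highest concentration tested. Otherwise, values were interpolated linearly from a five-concentration, 48-hour dose response in 96-well plates. GI50 marks 50% less growth.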 Activity calls are given as the source filed them. No stated cut-off is given here; in the data, active = GI50 up to about 1.1 µM and inactive = higher.

In the case of `COC(=O)C1=C(OC(=O)c2ccccc2)C(C(=O)OC)[C@@]2(O)[C@@H](C(=O)OC)[C@H](C)C[C@@H]1[C@@H]2C(=O)OC` (some centres not stated), the GI50 in experiment [1] is 42.2 µM (inactive); in experiment [2], 29.5 µM (inactive); in experiment [3], 28 µM (inactive); in experiment [4], 31.9 µM (inactive); in experiment [5], 41.8 µM (inactive); in [6], 17.6 µM (inactive). Besides, the GI50 in experiment [7] was 25.3 µM (inactive); in experiment [8], 35.4 µM (inactive); in experiment [9] it was 28.4 µM (inactive); in experiment [10], 26.4 µM (inactive); in experiment [11], 31.6 µM (inactive); in [12], 26.4 µM (inactive). Also, the GI50 is 31.6 µM (inactive) in experiment [13]; 45.5 µM (inactive) in experiment [14]; 74.6 µM (inactive) in [15]; 27.2 µM (inactive) in experiment [16]; 58.1 µM in experiment [17]; 47.8 µM (inactive) in [18]. Besides, the GI50 in experiment [19] is 75.9 µM (inactive).

Consider `O=C1c2scc(-c3ccc(F)cc3)c2-n2cccc21`, for which the GI50 in experiment [1] was 10.3 µM (inactive); in experiment [2] it was 8.99 µM (inactive); in [3], 13.6 µM (inactive); in [4], 22.4 µM (inactive); in [5], 20.6 µM (inactive); in experiment [6] it was 44.9 µM (inactive). Further, the GI50 in experiment [7] is 11.1 µM (inactive); in [8], 15.7 µM (inactive); in [9], 43 µM (inactive); in [10], 57.7 µM (inactive); in experiment [11] it was 39.4 µM (inactive); in experiment [12] it was 1.47 µM (inactive). Moreover, the GI50 was 24.4 µM (inactive) in [13]; 28.1 µM (inactive) in experiment [14]; 19.8 µM (inactive) in experiment [15]; 29.2 µM (inactive) in experiment [16]; 32.1 µM in [17]; 36.4 µM (inactive) in [18]. In addition, the GI50 in experiment [19] was 45.3 µM (inactive).

For `Cc1cc(-c2ccc(Cl)cc2)c(C#N)c(=S)n1C1OC(CO)C(O)C(O)C1O` (configuration not stated), the GI50 in [1] is > 100 µM (inactive); in experiment [3] it was 99.8 µM (inactive); in experiment [4] it was > 100 µM (inactive); in experiment [5], > 100 µM (inactive); in experiment [6], > 100 µM (inactive); in experiment [7], > 100 µM (inactive). Also, the GI50 in experiment [9], in [10], in experiment [11], in experiment [12], in experiment [13] and in experiment [14] was > 100 µM (inactive) throughout. Besides, the GI50 in experiment [15] was > 100 µM (inactive); in [16], > 100 µM (inactive); in experiment [17] it was over 100 µM; in [18] it was > 100 µM (inactive); in experiment [19], > 100 µM (inactive).

For `O=C1NC(N2CCCC(CO)C2)=N/C1=C\c1ccccc1` (configuration not stated), the GI50 in [1], in experiment [2], in experiment [3], in [4], in [5] and in [6] was > 100 µM (inactive) throughout. Moreover, the GI50 in experiment [7], in experiment [8], in experiment [9], in experiment [10], in experiment [11] and in [13] was > 100 µM (inactive) in each case. The GI50 in experiment [14] was > 100 µM (inactive); in experiment [15] it was > 100 µM (inactive); in experiment [16], > 100 µM (inactive); in experiment [17], over 100 µM; in [18], > 100 µM (inactive); in experiment [20], > 100 µM (inactive). For the same compound, the GI50 in experiment [19] is > 100 µM (inactive).

Take `NC(=S)NS(=O)(=O)c1ccc(F)cc1`: the GI50 in [1], in [3], in experiment [4], in [5], in experiment [6] and in experiment [7] was > 100 µM (inactive) throughout. Moreover, the GI50 in [8], in experiment [9], in experiment [10], in [11], in [13] and in experiment [14] was > 100 µM (inactive) each time. For the same compound, the GI50 in experiment [15] was > 100 µM (inactive); in [16], > 100 µM (inactive); in [17], over 100 µM; in experiment [18] it was > 100 µM (inactive); in experiment [20], > 100 µM (inactive); in experiment [19], > 100 µM (inactive).

On to `O=C(NCCNCCO)N/N=C/c1ccc([N+](=O)[O-])cc1`, for which the GI50 in experiment [1], in experiment [2], in [3], in [4], in experiment [5] and in [6] was > 100 µM (inactive) throughout. Moreover, the GI50 in experiment [7] was > 100 µM (inactive); in [8], > 100 µM (inactive); in experiment [9], > 100 µM (inactive); in experiment [10], > 100 µM (inactive); in experiment [12], 47.4 µM (inactive); in experiment [14], > 100 µM (inactive). For the same compound, the GI50 in experiment [15] was > 100 µM (inactive); in experiment [16] it was > 100 µM (inactive); in [17] it was over 100 µM; in experiment [18], > 100 µM (inactive); in [19], 90.8 µM (inactive).

On to `COc1ccccc1N1CCN(Cn2c(=O)oc3cccnc32)CC1`, for which the GI50 in [1] was > 100 µM (inactive); in [2], > 100 µM (inactive); in experiment [3], > 100 µM (inactive); in experiment [4], > 100 µM (inactive); in experiment [7] it was > 100 µM (inactive); in experiment [8], 90.2 µM (inactive). Moreover, the GI50 in experiment [10], in experiment [11], in [12], in experiment [13], in experiment [15] and in [16] was > 100 µM (inactive) in each case. For the same compound, the GI50 in experiment [17] is over 100 µM; in experiment [18], > 100 µM (inactive); in [20] it was > 100 µM (inactive); in experiment [19], > 100 µM (inactive).

In the case of `C=CCCCC1(C)CCCCNC1=O` (configuration not stated), the GI50 in experiment [1], in experiment [2], in [3], in experiment [4], in experiment [5] and in experiment [6] was > 10 µM (inactive) each time. For the same compound, the GI50 in [7], in [8], in [9], in experiment [10], in experiment [11] and in experiment [12] was > 10 µM (inactive) in each case. Moreover, the GI50 in [13] is > 10 µM (inactive); in [14], > 10 µM (inactive); in experiment [15], > 10 µM (inactive); in [16], > 10 µM (inactive); in experiment [17], over 10 µM; in experiment [18], > 10 µM (inactive). Moreover, the GI50 in experiment [19] was > 10 µM (inactive).

As to `CC1(C)C2CCC(=O)C1C(OCc1ccccc1)C2` (configuration not stated), the GI50 is 24.1 µM (inactive) in experiment [1]; > 100 µM (inactive) in [2]; > 100 µM (inactive) in experiment [3]; 17.4 µM (inactive) in experiment [4]; > 100 µM (inactive) in experiment [5]; > 100 µM (inactive) in experiment [6]. The GI50 in experiment [7], in experiment [8], in experiment [9], in experiment [10], in [11] and in experiment [12] was > 100 µM (inactive) in each case. Also, the GI50 in experiment [14] is > 100 µM (inactive); in [15] it was > 100 µM (inactive); in [16], > 100 µM (inactive); in experiment [17] it was over 100 µM; in experiment [18] it was > 100 µM (inactive); in experiment [19], > 100 µM (inactive).

Turning to `O=C1/C(=C/c2ccccc2S)N=C(c2ccccc2)N1c1nc2ccc(Sc3ccccc3)cc2[nH]1`, the GI50 in [1] was 34.1 µM (inactive); in [2], 36.3 µM (inactive); in experiment [3], 28.8 µM (inactive); in experiment [4], 18.4 µM (inactive); in [5], 26.4 µM (inactive); in experiment [6] it was 20.4 µM (inactive). Further, the GI50 in [7] is 12.4 µM (inactive); in experiment [8] it was 21.3 µM (inactive); in experiment [9], 27.6 µM (inactive); in [10], 34.5 µM (inactive); in experiment [11], 35.2 µM (inactive); in [12], 26.2 µM (inactive). Further, the GI50 in experiment [13] was 46.6 µM (inactive); in experiment [15] it was 45.3 µM (inactive); in experiment [16] it was 36.5 µM (inactive); in experiment [17], 31.9 µM; in [18], 38.3 µM (inactive); in [20], 81.3 µM (inactive). Moreover, in experiment [19], the GI50 is 27 µM (inactive).

Consider `Cc1ccc2c(c1)NC(c1ccc(C(=O)O)cc1)c1cccn1-2` (configuration not stated), for which the GI50 in experiment [1] was 15.6 µM (inactive); in experiment [3] it was 13.7 µM (inactive); in experiment [4], > 100 µM (inactive); in [5], 69.7 µM (inactive); in [6] it was > 100 µM (inactive); in experiment [7], 5.16 µM (inactive). Besides, the GI50 in [8] was 30.9 µM (inactive); in [9] it was 30.7 µM (inactive); in [11] it was 17.2 µM (inactive); in [12], 22.9 µM (inactive); in [13] it was 22.1 µM (inactive); in experiment [14], > 100 µM (inactive). Moreover, the GI50 is 22.4 µM (inactive) in experiment [15], > 100 µM (inactive) in experiment [16], over 100 µM in experiment [17] and 30.8 µM (inactive) in experiment [19].
